Literature values, collected in US9476892B2, “Composition and method for measuring thallium influx and efflux” (priority 2007, dated 2016).

Conditions: background statement, poorly soluble

Question: For `[Cl][Tl]` [thallium chloride], which “concentration at which thallium chloride precipitates out of solution” value is on record?
Answer: The value was at least 4500 µM.
